From article PMC8067766 (International Journal of Molecular Sciences, 2021)
Where a SMILES comes first, the peptide text is derived from it.

Assays:
[1] = Thioflavin T fluorescence assay; assay type: physicochemical; conditions: 1.0 mg/mL in PBS pH 7.4, 37 °C, orbital shaking; ThT excitation 420 nm, emission 482 nm
Experimental: All peptides were dissolved in Eppendorf Low Retention Tubes in 1.0 mL of PBS pH 7.4. The concentration of the solutions of peptides was 1.0 mg/mL. The peptides were incubated at 37 °C with constant orbital shaking. Aliquots for the evaluation of the fibrillization process were taken before incubation and after 1, 2, 3, 6, 14, and 21 days or only after 7 days, depending on the experiments.
Ten microliters of peptide solution incubated under fibrillization conditions (see Fibril preparation) were mixed with 10 µL of 1.5 mM ThT in water and 90 µL of PBS pH 7.4. The fluorescence was measured on a Tecan Infinite 200Pro (Tecan Group Ltd., Männedorf, Switzerland) spectrofluorometer in 96-well plates (Costar Black®), with excitation wavelength set at 420 nm and emission in the range of 455 to 600 nm.

[2] = Circular dichroism over incubation; assay type: physicochemical; conditions: 1.0 mg/mL in PBS pH 7.4, 37 °C with agitation, up to 14 days; centrifuged clear solution, far-UV 195-250 nm
Experimental: Circular dichroism spectra were recorded on a Jasco J-815 spectropolarimeter (Jasco, Victoria, BC, Canada). Far-UV spectra (195–250 nm) were registered for all peptides dissolved in PBS pH 7.4 at a concentration of 1.0 mg/mL and incubated at 37 °C with agitation. Spectra were recorded before and after 1,2, 3, 7, 10 and 14 days of incubation. All spectra were corrected for the buffer signal. The CD spectra were recorded three times, using a 0.2 mm cell.

[3] = molecular target: T1, human neutrophil elastase (Homo sapiens, UniProt P08246); assay: Incubation with neutrophil elastase (release of active sequence); assay type: in vitro ADME; conditions: non-fibrillated peptide 1.0 mM, 0.1 M Tris HCl, 500 mM NaCl, 0.05% Triton X-100, 20 mM CaCl2, pH 7.5; enzyme 150 nM; 30 min, 37 °C; RP-UHPLC (PDA) and LC-MS
T1 construct: purchased Sigma Aldrich
T1 sequence (P08246 30-267): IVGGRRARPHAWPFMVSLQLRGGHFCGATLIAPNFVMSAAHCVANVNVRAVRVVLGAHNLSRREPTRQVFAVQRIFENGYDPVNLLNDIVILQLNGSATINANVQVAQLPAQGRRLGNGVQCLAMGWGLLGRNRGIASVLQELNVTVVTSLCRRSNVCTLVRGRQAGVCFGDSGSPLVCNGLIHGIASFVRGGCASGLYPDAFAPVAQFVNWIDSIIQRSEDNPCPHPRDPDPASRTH
Experimental: An enzymatic stability study was performed using the human neutrophil elastase enzyme (Sigma Aldrich, St. Louis, MO, USA). The peptides were dissolved in a buffer (with composition: 0.1 M Tris HCl, 500 mM NaCl, 0.05% Triton X-100, 20 mM CaCl2, pH 7.5), to a final concentration 1.0 mM. The fibrils formed in the aggregation process were dissolved in PBS at pH 7.4 to a concentration of 1 mg/mL. The enzyme was added to the peptide/fibril solution to a concentration of 150 nM and incubated for 30 min (peptides) or 60 min (fibrils), at 37 °C, with agitation. A 10% aqueous TFA solution was added to the reaction mixture to stop the digestion. The progress of the reaction was monitored by RP-UHPLC with a PDA (Photo Diode Array) detector on a Kinetex C8 column (2.6 μm, 100 Å 2.6 × 100 mm, Phenomenex, Torrance, CA, USA), at a gradient of 0–50% B for 15 min, and by LC-MS.

46BR.1N fibroblasts [4] = assay: XTT proliferation assay, fibroblasts; assay type: cell-based, human; conditions: for increase in proliferation by fibrils compared to control (XTT): fibrillated form, 10 µL of fibrils (50 µg/mL), 48 h, three independent experiments; for stimulation of proliferation (XTT), in words / inhibition of proliferation (XTT), in words: non-fibrillated peptide, 48 and 72 h; for inhibition of proliferation (XTT), in words: up to 25 µg/mL
Experimental: Immortalized human HaCaT [69, 70] keratinocytes (DKFZ, Heidelberg, Germany) and the human dermal fibroblast cell line 46BR.1N (ECACC, Sigma Aldrich, St. Louis, MO, USA) were used in the study. Cells were routinely grown in culture flasks (growth surface area 25 cm^2) in Dulbecco’s modified Eagle medium (DMEM, Sigma Aldrich, St. Louis, MO, USA), with 4500 mg/L of glucose, 584 mg/L of L-glutamine, sodium pyruvate, and sodium bicarbonate, supplemented with 10% FBS and 100 units/mL of penicillin and 100 μg/mL of streptomycin (Sigma Aldrich, St. Louis, MO, USA), under a humidified atmosphere with 5% CO2 at 37 °C. Medium was changed every 2–3 days.
Lactate dehydrogenase (LDH) activity in cell culture supernatants (Takara, Japan, cat. No. MK401) was measured to determine the cytotoxicity of the tested compounds, and the XTT assay was used to evaluate their effect on cell proliferation. Both tests were performed as previously described according to manufacturers’ instructions. Briefly, cells were seeded into 96-well plates, at a density of 5000 cells per well, in DMEM supplemented with 10% FBS. After 24 h the medium was exchanged for serum-free DMEM containing appropriate concentrations of the tested compounds. Supernatants for LDH analysis were collected after 48 h of incubation. The XTT assay was performed after 48 and 72 h of incubation.
For the analysis of the effect of the peptide fibrils on skin cells, the experiment was performed as described, but the cells were stimulated with 10 µL of the fibrils (50 µg/mL) and incubated for 48 h, when the LDH and XTT assay were then performed.

46BR.1N fibroblasts [5] = assay: Collagen synthesis analysis (Direct red 80); assay type: cell-based, human; conditions: 25.0 µg/mL; 6 days; Direct red 80, 550 nm, percentage of control
Experimental: 46BR.1N fibroblasts were seeded into 96-well plates, at a density of 3000 cells per well, in DMEM medium supplemented with 10% FBS. After 24 h, when the cells had attached to the plate, the medium was exchanged for a fresh one, and the cells were stimulated with appropriate concentrations of the tested peptides. Half of the medium was exchanged every two days, with additional stimulation during every medium exchange, and the cells were cultured in the presence of the peptides for six days. The medium was then removed and the cells were washed with PBS, fixed for 1 h in Bouin’s fluid (15 mL of saturated picric acid, 5 mL of 37% formaldehyde and 1 mL of acetic acid), washed in running tap water for 15 min and air dried. The cells were stained for 1 h with Direct red 80 (Sigma Aldrich, St. Louis, MO, USA) dissolved in saturated aqueous picric acid solution at a concentration of 1 mg/mL, while gently shaking the plate on a microplate shaker. The dye was removed and the cells were washed with a 0.01 M hydrochloric acid solution to remove unbound dye. The cells were photographed with a light microscope. The dye was then dissolved in 0.1 M sodium hydroxide for 30 min by shaking the plate on a microplate shaker at room temperature. The solution was transferred to a new plate and a spectrophotometric analysis was performed at 550 nm, using 0.1 N sodium hydroxide as a blank. […]

CC[C@H](C)[C@H](NC(=O)CNC(=O)[C@H](C)NC(=O)[C@H](CCC(N)=O)NC(=O)CNC(=O)CNC(=O)CNC(=O)[C@@H](NC(=O)[C@@H]1CCCN1C(=O)[C@H](C)NC(=O)[C@H](C)NC(=O)CNC(=O)CNC(=O)CNC(=O)[C@H](CCCCN)NC(=O)[C@H](Cc1c[nH]cn1)NC(=O)CNC(C)=O)C(C)C)C(=O)N[C@H](C(=O)N[C@H](C(N)=O)C(C)C)C(C)C [FC-GHK] (Ac-GHKGGGAAPVGGGQAGIVV-NH2)
time course of ThT fluorescence increase (fibrillization) [1]: effective sample fibrilization during the first two days of incubation | secondary structure by CD [2]: disordered structure | Degradation Yes/No by human neutrophil elastase [3]: Yes | increase in proliferation by fibrils compared to control (XTT) (46BR.1N fibroblasts [4]): about 10% | stimulation of proliferation (XTT), in words (46BR.1N fibroblasts [4]): stimulated proliferation of both tested cell lines at concentrations of 0.01–10 µg/L | inhibition of proliferation (XTT), in words (46BR.1N fibroblasts [4]): slight inhibition of the proliferation of skin cells after 72 h stimulation | increase in collagen synthesis (46BR.1N fibroblasts [5]): 30%

CC[C@H](C)[C@H](NC(=O)CNC(=O)[C@H](C)NC(=O)[C@H](CCC(N)=O)NC(=O)CNC(=O)CNC(=O)CNC(=O)[C@@H](NC(=O)[C@@H]1CCCN1C(=O)[C@H](C)NC(=O)[C@H](C)NC(=O)CNC(=O)CNC(=O)CNC(=O)[C@H](CCCCN)NC(=O)[C@H](Cc1c[nH]cn1)NC(=O)CNC(=O)[C@H](CCCCN)NC(C)=O)C(C)C)C(=O)N[C@H](C(=O)N[C@H](C(N)=O)C(C)C)C(C)C [FC-KGHK] (Ac-KGHKGGGAAPVGGGQAGIVV-NH2)
time course of ThT fluorescence increase (fibrillization) [1]: required at least three days of incubation | secondary structure by CD [2]: disordered structure | Degradation Yes/No by human neutrophil elastase [3]: Yes | increase in proliferation by fibrils compared to control (XTT) (46BR.1N fibroblasts [4]): ~20% | stimulation of proliferation (XTT), in words (46BR.1N fibroblasts [4]): strongest stimulation was observed for 46BR.1N fibroblasts in concentrations of 0.1–10 µg/mL after 72 h of incubation | inhibition of proliferation (XTT), in words (46BR.1N fibroblasts [4]): did not inhibit the proliferation of skin cells | increase in collagen synthesis (46BR.1N fibroblasts [5]): 40%
